In patent publication US12090225B2 (Avalyn Pharma Inc., priority 2018, dated 2024):
Where a name gives a salt, the structure may show the parent alone.

Tests used:
[1] = Disproportionation/hydration studies (pH, XRPD pattern); format: physicochemical; conditions: for pH Pre-Agitation: listed as HCl salt
Description: No XRPD data could be compiled on the hydration or disproportionation of the salt due to the high solubility in water and acetone/water mixtures.
The salt only remained Pattern 1 at 0.3 aw. New patterns 6 and 7 are likely hydrated due to the high water activity conditions for production.

[2] = Feasibility assessment of ready-to-use nintedanib HBr, HCl and esylate formulations; format: physicochemical; conditions: NaCl at 10 mM; by itself
[3] = Citrate buffer formulation; format: physicochemical
[4] = Solid state and chemical stability of nintedanib HBr and HCl salts through 6 months; format: physicochemical; conditions: for Weight loss: TGA/DSC
Description: Table 24 and Table 25 summarize the total impurities (by HPLC), polymorphic form (by X-ray powder diffraction) and, where applicable, weight loss (by TGA/DSC) for both the HCl and HBr salt forms. […] There were no changes in polymorphic form for both salt forms stored at 25 C/60% RH condition.

Water pH titration = format: physicochemical; conditions: 2 mg/mL Nintedanib slurry HCl sample
[5] = Pattern stability screen of potential salts (40° C./75% RH, XRPD); format: physicochemical
Procedure: XRPD analysis was carried out on a PANalytical X'pert pro, scanning the samples between 3 and 35° 20. The material was gently compressed and loaded onto a multi-well plate with Kapton or Mylar polymer film to support the sample.
Primary Salt Screening. […] The solvent systems shown in Table were selected for salt screening. For sulfonic acids MEK was used instead of methanol and acetone:water 50:50 (v/v) was used instead of IPA:water to avoid any potential genotoxic impurities. Ca. […] If the acid was insoluble in the selected solvent, a slurry was used. If the acid was a liquid it was added to the API slurry from a stock solution in the allocated solvent. The mixtures of API/counterion/solvent were temperature cycled between ambient and 40° C. in 4 hour cycles for ca. 3 days. Any solids present were isolated and allowed to dry at ambient conditions, for ca. 30 minutes prior to analysis by XRPD. Where solutions were obtained they were evaporated to obtain solid material.

[6] = Inhaled pharmacokinetics of nintedanib salt forms (intratracheal); format: in vivo, C57BL/6 mice; conditions: female, C57BL/6, mouse, lung, inhaled or intranasal, 1 mg/kg, 1 mg/kg (base equivalent) IT, mice; read-out: lung half-life
[7] = Dynamic Vapour Sorption (DVS) hygroscopicity; format: physicochemical; conditions: for DVS mass uptake at 90% RH: 25° C., uptake from input material; for Hygroscopicity: DVS
Procedure: Dynamic Vapour Sorption (DVS). Approximately, 10 mg of sample was placed into a mesh vapour sorption balance pan and loaded into a DVS-1 or DVS Advantage dynamic vapour sorption balance by Surface Measurement Systems. The sample was subjected to a ramping profile from 40-90% relative humidity (RH) at 10% increments, maintaining the sample at each step until a stable weight had been achieved (dm/dt 0.004%, minimum step length 30 minutes, maximum step length 500 minutes) at 25° C. After completion of the sorption cycle, the sample was dried using the same procedure to 0% RH and then a second sorption cycle back to 40% RH. Two cycles were performed. The weight change during the sorption/desorption cycles were plotted, allowing for the hygroscopic nature of the sample to be determined. XRPD analysis was then carried out on any solid retained.

[8] = Aqueous solubility assessment of salts; format: physicochemical
[9] = 7 day stability testing of salts (40° C./75% RH, 80° C., ambient light; HPLC purity, XRPD); format: physicochemical; conditions: listed as HCl salt
Procedure: High Performance Liquid Chromatography-Ultraviolet Detection (HPLC-UV): Instrument: Dionex Ultimate 3000; Column: Acquity CSH C18 100 mm×2.1 mm 1.7 μm; Column Temperature: 50° C.; Autosampler Temperature: Ambient; UV wavelength: 210 nm; Injection Volume: 4 μL; Flow Rate: 0.6 mL/min; Mobile Phase A: 0.1% formic acid in water; Mobile Phase B: 0.1% formic acid in acetonitrile. The HPLC method used the gradient in Table 2.
FT-IR appeared to be consistent with the structure. […] The material was physically stable to changes in temperature and humidity when stored for one week.
A new, poorly crystalline pattern was produced when stored at 40° C./75% RH—Pattern 4.
Purity of these materials remained unchanged (as shown in Table) apart from the sample stored at ambient light, where a 0.5% drop in purity was observed.

[10] = HBr and HCl salts-filter compatibility study; format: physicochemical; conditions: for visual appearance after filtration: 3% PG solution, glass vials, ambient room condition; for Visual appearance: listed as Nintedanib HCl Salt
Procedure: HBr and HCl salts-filter compatibility study: this study was conducted to assess the compatibility of the HBr and the HCl salts with various membrane filters. […] The glass vials were stored at ambient room condition and visual appearance was periodically inspected.

[11] = 0.5 mg/mL solubility assessment (filtered/unfiltered); format: physicochemical; conditions: 0.5 mg/mL experiment; for pH: listed as HCl
[12] = Water Activity 0.3 (acetone/water)
[13] = Water Activity 0.6 (acetone/water)
[14] = Water Activity 0.9 (acetone/water)
[15] = 0.5 mg/mL citrate buffer experiments, listed as HCl
[16] = 40° C./75% RH, 2 months, listed as Nintedanib HCl salt
[17] = 40° C./75% RH, 6 months, listed as Nintedanib HCl salt

COC(=O)c1ccc2c(c1)NC(=O)/C2=C(\Nc1ccc(N(C)C(=O)CN2CCN(C)CC2)cc1)c1ccccc1 [Nintedanib HCl]
pH Post-Agitation [1, 12]: 2.45
pH Pre-Agitation [1, 12]: 1.94
pH Post-Agitation [1, 13]: 2.33
pH Pre-Agitation [1, 13]: 2.32
pH Post-Agitation [1, 14]: 2.24
pH Pre-Agitation [1, 14]: 1.89
pH Post-Agitation ([1]; Water Activity 1.0 (water)): 2.33
pH Pre-Agitation ([1]; Water Activity 1.0 (water)): 2.05
compatibility with NaCl [2]: not compatible
Initial pH [3, 15]: 4.84
pH 1 h [3, 15]: 4.80
attempt to solubilize in citrate buffer ([3]; pH 4.75 citrate buffer, ~1.7 mg/mL (Nintedanib)): unsuccessful
Total impurities ([4]; 25° C./60 % RH, 1 week, listed as Nintedanib HCl salt): 0.41%
Total impurities ([4]; 25° C./60 % RH, 2 months, listed as Nintedanib HCl salt): 0.36%
Total impurities ([4]; 25° C./60 % RH, 4 weeks, listed as Nintedanib HCl salt): 0.36%
Total impurities ([4]; 25° C./60 % RH, 6 months, listed as Nintedanib HCl salt): 0.46%
Total impurities ([4]; 25° C./60 % RH, Initial): 0.29%
Weight loss ([4]; 25° C./60 % RH, Initial, listed as Nintedanib HCl salt): 0.82%
Polymorphic form ([4]; 40° C./75% RH, 1 week): Pattern 1
Total impurities ([4]; 40° C./75% RH, 1 week, listed as Nintedanib HCl salt): 0.39%
Polymorphic form [4, 16]: Pattern 1
Total impurities [4, 16]: 0.37%
Total impurities ([4]; 40° C./75% RH, 4 weeks): 0.34%
Polymorphic form ([4]; 40° C./75% RH, 4 weeks, listed as Nintedanib HCl salt): Pattern 1
Polymorphic form [4, 17]: Pattern 1
Total impurities [4, 17]: 0.52%
Polymorphic form ([4]; 40° C./75% RH, Initial): Pattern 1
Total impurities ([4]; 40° C./75% RH, Initial): 0.29%
Weight loss ([4]; 40° C./75% RH, Initial, listed as Nintedanib HCl salt): 0.82%
pH upon cooling (Water pH titration): 4.76
concentration of the filtered sample (Water pH titration; by HPLC): 1700 µg/mL
XRPD pattern after 72 hrs 40° C./75% RH ([5]; Initial pattern 1): 1
XRPD pattern after 72 hrs 40° C./75% RH ([5]; Initial pattern 2): 2
XRPD pattern after 72 hrs 40° C./75% RH ([5]; Initial pattern 3, listed as HCl): 1
half-life [6]: ~4 min
DVS mass uptake at 90% RH ([7]; listed as HCl): further 2.2% uptake up
DVS mass uptake at 90% RH ([7]; listed as HCl salt): ca. 2.2%
Hygroscopicity ([7]; listed as HCl): Hygroscopic
Hygroscopicity ([7]; listed as HCl salt): hygroscopic
Post-DVS XRPD pattern ([7]; listed as HCl): Pattern unchanged
Post-DVS XRPD pattern ([7]; listed as HCl salt): remain unchanged
pH at 6 h ([8]; salt in water, after agitation): 2.26
pH at 18 h ([8]; salt in water, after agitation): 2.08
Initial pH ([8]; salt in water, solubility assessment): 2.22
solubility ([8]; thermodynamic from solid, deionized water added to 20 mg of salt, read-out: solubility in water): ~11 mg/mL
XRPD pattern after 7 day stability testing ([9]; 40° C./75% RH, 80° C. and ambient light (all conditions)): remain pattern 1
Purity (%) ([9]; 40° C./75% RH, 7 day stability testing): 99.9%
Purity (%) ([9]; 80° C., 7 day stability testing): 99.9%
Purity (%) ([9]; Ambient, 7 day stability testing): 99.9%
Purity (%) ([9]; Input): 99.9%
visual appearance after filtration ([10]; 0.22 μm PES filter): light precipitation after 2 weeks
visual appearance after filtration ([10]; 0.22 μm PVDF filter): precipitated shortly after filtration
visual appearance after filtration ([10]; 0.22 μm nylon filter): no change in appearance through 1 month
Visual appearance ([10]; PTFE filter, 1 month): Precipitation
Visual appearance ([10]; PTFE filter, 1 week): Precipitation
Visual appearance ([10]; PTFE filter, 2 weeks): Precipitation
Visual appearance ([10]; PVFD filter, 1 month): Precipitation
Visual appearance ([10]; PVFD filter, 1 week): Precipitation
Visual appearance ([10]; PVFD filter, 2 weeks): Precipitation
Visual appearance ([10]; PVFD filter, Initial): Precipitation
concentration for filtered sample compared to unfiltered ([11]; listed as HCl salt): 99%
pH ([11]; Filtered): 5.36
pH ([11]; Unfiltered): 5.28
